Reference: article PMC12141336, “A dual inhibitor of TrxR1 and XIAP induces pyroptosis in melanoma” (Frontiers in Cell and Developmental Biology, 2025)

Legend:
[1] = target: T1, TrxR1 (thioredoxin reductase 1) (Rattus norvegicus, UniProt O89049); test: DTNB assay on purified recombinant TrxR1, […] h incubation
T1 construct: gene Txnrd1
T1 sequence (O89049 1-499): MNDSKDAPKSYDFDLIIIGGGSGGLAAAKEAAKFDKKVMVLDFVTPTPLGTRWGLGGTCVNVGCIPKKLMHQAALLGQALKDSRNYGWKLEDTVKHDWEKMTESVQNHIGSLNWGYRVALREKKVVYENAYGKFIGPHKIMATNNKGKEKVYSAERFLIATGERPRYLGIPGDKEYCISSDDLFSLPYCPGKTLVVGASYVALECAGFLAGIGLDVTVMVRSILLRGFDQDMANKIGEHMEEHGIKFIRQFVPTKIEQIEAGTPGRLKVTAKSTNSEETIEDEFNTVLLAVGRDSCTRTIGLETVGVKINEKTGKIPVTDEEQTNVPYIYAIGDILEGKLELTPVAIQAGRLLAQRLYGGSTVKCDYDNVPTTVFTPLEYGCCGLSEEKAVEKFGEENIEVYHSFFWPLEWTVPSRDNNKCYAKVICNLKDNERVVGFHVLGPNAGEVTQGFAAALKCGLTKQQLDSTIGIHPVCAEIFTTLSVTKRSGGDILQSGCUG

[2] = target: T1, TrxR1 (thioredoxin reductase 1); test: fluorescence quenching (Stern-Volmer) with GST as control; also DTNB assay on recombinant TrxR1, IC50 […]; assay type: binding

Compound | IC50 [1] | Kd [2]
CC[P](CC)(CC)=[Au][S][C@@H]1O[C@H](COC(C)=O)[C@@H](OC(C)=O)[C@H](OC(C)=O)[C@H]1OC(C)=O [auranofin] | 1470 ± 30 nM | 
CC(=O)CC#[C][Au][P](c1ccccc1)(c1ccccc1)C1CCCCC1 [TRI-03] |  | 310 ± 50 nM
